This note sets out measurements from US9434743B2, “Indazole derivatives” (TAKEDA PHARMACEUTICAL COMPANY LIMITED, priority 2012, dated 2016).

The target in assay [1] is T1, human MetAP2 enzyme (Homo sapiens, UniProt P50579). The experiment in a line: MetAP2 enzyme assay, enzyme complexed with manganese ions. The following applies: MetAP2 Mn pIC50, MetAP2 enzyme complexed with manganese ions; Met-AMC substrate at Km.
Assay [2] deals with T1, human MetAP2 enzyme. The experiment in a line: MetAP2 enzyme assay, enzyme complexed with cobalt ions. The following applies: MetAP2 Co pIC50, MetAP2 enzyme complexed with cobalt ions; Met-AMC substrate at Km.
Experimental: DNA encoding the full-length sequence of human MetAP2 enzyme is amplified by PCR and cloned into a pFastBac expression vector (Invitrogen). Recombinant baculovirus incorporating the MetAP2 construct is generated by transposition using the Bac-to-Bac system (Invitrogen). The expression of recombinant protein is carried out by infection of Spodoptera frugiperda Sf9 cells (Invitrogen) in 5 L Wave Bioreactors (Wave Biotech). Recombinant protein is isolated from cellular extracts by binding to an SP Hitrap Fast Flow or SP Sepharose (Sigma) column, and the protein is eluted using a NaCl gradient. Partially purified extracts of MetAP2 are further purified by an AKTA FPLC over a Superdex-200 column (GE). The purity of MetAP2 protein is determined on denaturing SDS-PAGE gel.
The results for each well are expressed as percent inhibition and calculated using the equation:

The structures appear in SMILES notation.

T1 sequence (P50579 whole entry): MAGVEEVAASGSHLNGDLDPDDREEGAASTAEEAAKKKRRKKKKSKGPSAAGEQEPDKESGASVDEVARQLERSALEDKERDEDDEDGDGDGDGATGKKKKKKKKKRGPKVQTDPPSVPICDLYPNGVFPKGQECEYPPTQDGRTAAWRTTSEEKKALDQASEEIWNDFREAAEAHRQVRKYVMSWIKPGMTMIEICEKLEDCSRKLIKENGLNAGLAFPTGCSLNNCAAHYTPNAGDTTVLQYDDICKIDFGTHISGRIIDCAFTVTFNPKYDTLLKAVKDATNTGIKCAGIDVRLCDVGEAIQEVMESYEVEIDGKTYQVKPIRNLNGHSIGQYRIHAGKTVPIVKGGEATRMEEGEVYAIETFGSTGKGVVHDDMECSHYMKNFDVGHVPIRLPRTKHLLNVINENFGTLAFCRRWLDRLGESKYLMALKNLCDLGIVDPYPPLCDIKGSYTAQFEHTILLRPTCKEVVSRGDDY

For `CN(C)C(=O)c1cccc(-c2cc(C(F)(F)F)cc3[nH]ncc23)c1` [Example 121, N,N-dimethyl-3-(6-(trifluoromethyl)-1H-indazol-4-yl)benzamide], the concentration for half-maximal inhibition (IC50) is 6.31 nM in assay [1] and 63.1 nM in assay [2].

On to `Cc1ccc(-c2cc(C(F)(F)F)cc3[nH]ncc23)c(C)n1` [Example 215, 4-(2,6-dimethylpyridin-3-yl)-6-(trifluoromethyl)-1H-indazole], for which the values for the half-maximal inhibitory concentration (IC50) in assay [1] and in assay [2] were 7.94 nM and 50.1 nM, respectively.

In the case of `Cc1nn(CC(=O)N2CCOCC2)cc1-c1cc(C(F)(F)F)cc2[nH]ncc12` [Example 277, 2-(3-methyl-4-(6-(trifluoromethyl)-1H-indazol-4-yl)-1H-pyrazol-1-yl)-1-morpholinoethanone], the results for the IC50 in assay [1] and in assay [2] were 5.01 nM and 63.1 nM, respectively.

Consider `Cn1ccnc1-c1cc(C(F)(F)F)cc2[nH]ncc12` [Example 147, 4-(1-methyl-1H-imidazol-2-yl)-6-(trifluoromethyl)-1H-indazole], for which the concentration for half-maximal inhibition (IC50) in assay [1] was 126 nM; in assay [2] it was 5010 nM.

Regarding `FC(F)(F)c1cc(-c2cnn3ccccc23)c2cn[nH]c2c1` [Example 41, 4-(pyrazolo[1,5-a]pyridin-3-yl)-6-(trifluoromethyl)-1H-indazole], the IC50 was 6.31 nM in assay [1] and 25.1 nM in assay [2].

`N#CCc1cccc(-c2cc(C(F)(F)F)cc3[nH]ncc23)c1` [Example 90, 2-(3-(6-(trifluoromethyl)-1H-indazol-4-yl)phenyl)acetonitrile]: the 50% inhibitory concentration (IC50) is 3.16 nM in assay [1] and 31.6 nM in assay [2].

For `O=C(NCC(O)CO)c1c[nH]c(=O)c(-c2cc(C(F)(F)F)cc3[nH]ncc23)c1` (stereo not shown) [Example 337, N-(2,3-dihydroxypropyl)-6-oxo-5-(6-(trifluoromethyl)-1H-indazol-4-yl)-1,6-dihydropyridine-3-carboxamide], the IC50 in assay [1] was 15.8 nM; in assay [2] it was 398 nM.

`Cc1nn(CCN(C)C)c(C)c1-c1cc(C(F)(F)F)cc2[nH]ncc12` [Example 219, 2-(3,5-dimethyl-4-(6-(trifluoromethyl)-1H-indazol-4-yl)-1H-pyrazol-1-yl)-N,N-dimethylethanamine]: the half-maximal inhibitory concentration (IC50) in assay [1] was 12.6 nM; in assay [2], 50.1 nM.

On to `FC(F)(F)c1cc(-c2cnn(CCN3CCOCC3)c2)c2cn[nH]c2c1` [Example 74, 4-(2-(4-(6-(trifluoromethyl)-1H-indazol-4-yl)-1H-pyrazol-1-yl)ethyl)morpholine], for which the IC50 in assay [1] was 3.98 nM; in assay [2], 50.1 nM.

`Cc1nc(NS(=O)(=O)c2cnn(C)c2)ccc1-c1cc(C(F)(F)F)cc2[nH]ncc12` [Example 259, 1-methyl-N-(6-methyl-5-(6-(trifluoromethyl)-1H-indazol-4-yl)pyridin-2-yl)-1H-pyrazole-4-sulfonamide]: the IC50 in assay [1] is 7.94 nM; in assay [2], 31.6 nM.

Turning to `CS(=O)(=O)Nc1ccc(-c2cc(C(F)(F)F)cc3[nH]ncc23)cc1` [Example 56, N-(4-(6-(trifluoromethyl)-1H-indazol-4-yl)phenyl)methanesulfonamide], the IC50 in assay [1] was 12.6 nM; in assay [2], 39.8 nM.

As for `Cc1cc(Cn2nc(C)c(-c3cc(C(F)(F)F)cc4[nH]ncc34)c2CO)on1` (single isomer, unassigned) [Example 412, (3-methyl-1-((3-methylisoxazol-5-yl)methyl)-4-(6-(trifluoromethyl)-1H-indazol-4-yl)-1H-pyrazol-5-yl)methanol], the concentration for half-maximal inhibition (IC50) is 3.98 nM in assay [1] and 15.8 nM in assay [2].

For `FC(F)(F)c1cc(-c2cncc3ccccc23)c2cn[nH]c2c1` [Example 111, 4-(6-(trifluoromethyl)-1H-indazol-4-yl)isoquinoline], the IC50 in assay [1] was 15.8 nM; in assay [2], 50.1 nM.

With `Cc1ccc(N)c(-c2cc(C(F)(F)F)cc3[nH]ncc23)n1` [Example 188, 6-methyl-2-(6-(trifluoromethyl)-1H-indazol-4-yl)pyridin-3-amine], the concentration for half-maximal inhibition (IC50) is 79.4 nM in assay [1] and 1580 nM in assay [2].

The IC50 is the concentration needed to halve the response being measured. Low readings indicate greater potency in that assay, high ones weaker potency in that assay.
